This assay has as its target T1, ΔF508-CFTR (Homo sapiens, UniProt P13569, DEL508-508).
T1 construct: expressed in transfected cells
Description: Membrane potential optical (FRET/VIPR) assay, identification of potentiator compounds. The assay is classed as cell-based. The note with it: Table 3, assay not given; for % Activity: relative efficacy. The procedure, abridged: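 Double-addition potentiator screen: compound delivered in gluconate-substituted Cl^--free medium, membrane potential followed via CC2-DMPE/DiSBAC2(3) FRET on VIPR. Cells were ΔF508-CFTR-expressing NIH3T3 mouse fibroblasts, held 2 h at 37° C. then 24 h at 27° C. before assay.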

Some results are limits rather than exact numbers.

T1 sequence (P13569 with tags, fused parts or gaps DEL508-508): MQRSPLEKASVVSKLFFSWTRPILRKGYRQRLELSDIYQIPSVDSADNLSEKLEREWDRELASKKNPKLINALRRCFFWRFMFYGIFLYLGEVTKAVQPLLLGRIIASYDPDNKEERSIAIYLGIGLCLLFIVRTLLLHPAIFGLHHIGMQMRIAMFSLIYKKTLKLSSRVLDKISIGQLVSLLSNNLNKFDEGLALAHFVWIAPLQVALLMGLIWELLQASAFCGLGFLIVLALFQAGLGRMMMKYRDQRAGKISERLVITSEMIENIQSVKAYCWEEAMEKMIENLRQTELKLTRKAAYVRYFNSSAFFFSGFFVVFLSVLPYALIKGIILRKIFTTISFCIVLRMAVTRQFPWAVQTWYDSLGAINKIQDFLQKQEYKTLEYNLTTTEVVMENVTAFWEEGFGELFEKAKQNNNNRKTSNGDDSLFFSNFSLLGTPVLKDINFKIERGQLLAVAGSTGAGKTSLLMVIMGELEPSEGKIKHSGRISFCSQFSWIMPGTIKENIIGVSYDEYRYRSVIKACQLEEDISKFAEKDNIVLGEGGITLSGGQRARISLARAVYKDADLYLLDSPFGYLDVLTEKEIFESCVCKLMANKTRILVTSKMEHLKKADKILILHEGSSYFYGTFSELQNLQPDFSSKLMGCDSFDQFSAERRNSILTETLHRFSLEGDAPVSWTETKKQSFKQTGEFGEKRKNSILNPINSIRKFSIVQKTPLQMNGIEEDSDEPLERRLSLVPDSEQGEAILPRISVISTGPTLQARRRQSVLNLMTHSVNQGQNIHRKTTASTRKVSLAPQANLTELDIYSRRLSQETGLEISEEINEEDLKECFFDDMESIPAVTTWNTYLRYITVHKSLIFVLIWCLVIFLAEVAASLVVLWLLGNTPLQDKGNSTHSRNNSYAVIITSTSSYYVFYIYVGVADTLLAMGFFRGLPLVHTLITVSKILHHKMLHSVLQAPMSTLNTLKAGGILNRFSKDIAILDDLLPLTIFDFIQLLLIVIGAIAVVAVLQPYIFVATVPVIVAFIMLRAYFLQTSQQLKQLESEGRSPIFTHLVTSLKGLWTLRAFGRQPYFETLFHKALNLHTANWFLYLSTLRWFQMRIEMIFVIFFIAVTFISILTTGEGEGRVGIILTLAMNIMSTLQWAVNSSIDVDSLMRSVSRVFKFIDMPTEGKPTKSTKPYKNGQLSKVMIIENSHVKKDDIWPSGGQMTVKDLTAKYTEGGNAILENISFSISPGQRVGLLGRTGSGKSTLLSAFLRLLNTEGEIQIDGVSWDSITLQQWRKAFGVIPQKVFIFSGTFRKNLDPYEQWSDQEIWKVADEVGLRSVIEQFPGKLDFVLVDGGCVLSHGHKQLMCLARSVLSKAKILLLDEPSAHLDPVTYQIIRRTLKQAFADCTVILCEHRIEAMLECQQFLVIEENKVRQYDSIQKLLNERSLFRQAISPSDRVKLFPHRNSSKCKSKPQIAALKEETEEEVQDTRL

By EC50 is commonly meant the concentration that produces a half-maximal response. As to `O=C(Nc1ccc2c(c1)CCCC2)c1c[nH]c2ccccc2c1=O` [Compound 375, 1,4-dihydro-N-(1,2,3,4-tetrahydronaphthalen-6-yl)-4-oxoquinoline-3-carboxamide], the EC50 was under 10 µM and the “% Activity” value is “++ (between 25% to 100%)”.

With `COCCOCC(C)(C)c1ccc(NC(=O)c2c[nH]c3ccccc3c2=O)cc1O` [Compound 126, N-[3-hydroxy-4-[2-(2-methoxyethoxy)-1,1-dimethyl-ethyl]-phenyl]-4-oxo-1H-quinoline-3-carboxamide], the EC50 is under 10 µM and the “% Activity” value is reported as “++ (between 25% to 100%)”.

Consider `O=C(Nc1cccc2nsnc12)c1c[nH]c2ccccc2c1=O` [Compound 54, 4-oxo-N-(8-thia-7,9-diazabicyclo[4.3.0]nona-2,4,6,9-tetraen-5-yl)-1H-quinoline-3-carboxamide], for which the EC50 fell in the range of 25 to 60 µM and the “% Activity” value is recorded as “+ (<25%)”.

For `CCOC(=O)Nc1cc(NC(=O)c2c[nH]c3ccccc3c2=O)ccc1C(C)(C)C` [Compound 127, [5-[(4-oxo-1H-quinolin-3-yl)carbonylamino]-2-tert-butyl-phenyl]aminoformic acid ethyl ester], the half-maximal effective concentration (EC50) is under 10 µM and the “% Activity” value was “++ (between 25% to 100%)”.

For the molecule `O=C(Nc1ccccc1-c1ccc(F)c(Cl)c1)c1c[nH]c2ccccc2c1=O` [Compound 190, N-[2-(3-chloro-4-fluoro-phenyl)phenyl]-4-oxo-1H-quinoline-3-carboxamide], the half-maximal effective concentration (EC50) was under 10 µM and the “% Activity” value is recorded as “++ (between 25% to 100%)”.

As for `CC(C)(C)c1ccc(NC(=O)c2c[nH]c3ccccc3c2=O)cc1` [Compound 448, 4-oxo-N-(4-tert-butylphenyl)-1H-quinoline-3-carboxamide], the EC50 is under 10 µM and the “% Activity” value is on record as “++ (between 25% to 100%)”.

Turning to `Cc1cc(C(C)(C)C)c(O)cc1NC(=O)c1c[nH]c2ccc(F)cc2c1=O` [Compound 683, 6-fluoro-N-(5-hydroxy-2-methyl-4-tert-butyl-phenyl)-4-oxo-1H-quinoline-3-carboxamide], the EC50 is under 10 µM and the “% Activity” value is on record as “++ (between 25% to 100%)”.

As for `O=C(Nc1cccc(Oc2ccccc2)c1)c1c[nH]c2ccccc2c1=O` [Compound 87, 4-oxo-N-(3-phenoxyphenyl)-1H-quinoline-3-carboxamide], the EC50 was under 10 µM and the “% Activity” value is reported as “++ (between 25% to 100%)”.

For the molecule `O=C(Nc1ccc2cc[nH]c2c1)c1c[nH]c2ccccc2c1=O` [Compound 33, N-(1H-indol-6-yl)-4-oxo-1H-quinoline-3-carboxamide], the EC50 was under 10 µM and the “% Activity” value is reported as “++ (between 25% to 100%)”.

With `CN(C)c1ccc2[nH]cc(C(=O)Nc3cc(O)c(C(C)(C)C)cc3C(C)(C)C)c(=O)c2c1` [Compound 544, 6-dimethylamino-N-(5-hydroxy-2,4-ditert-butyl-phenyl)-4-oxo-1H-quinoline-3-carboxamide], the EC50 was under 10 µM and the “% Activity” value is reported as “++ (between 25% to 100%)”.

In the case of `O=C(Nc1ccccc1SC(F)(F)F)c1c[nH]c2ccccc2c1=O` [Compound 371, 4-oxo-N-[2-(trifluoromethylsulfanyl)phenyl]-1H-quinoline-3-carboxamide], the EC50 was under 10 µM and the “% Activity” value is “++ (between 25% to 100%)”.

For the molecule `CCC1(c2ccc(NC(=O)c3c[nH]c4ccccc4c3=O)cc2)CCC(=O)NC1=O` (stereo not drawn) [Compound 57, N-[4-(3-ethyl-2,6-dioxo-3-piperidyl)phenyl]-4-oxo-1H-quinoline-3-carboxamide], the concentration giving a half-maximal response (EC50) is 10 to 25 µM and the “% Activity” value is given as “+++ (>100%)”.

For `O=C(Nc1ccc(Sc2ccccc2)cc1)c1c[nH]c2ccccc2c1=O` [Compound 470, 4-oxo-N-(4-phenylsulfanylphenyl)-1H-quinoline-3-carboxamide], the EC50 is under 10 µM and the “% Activity” value is given as “++ (between 25% to 100%)”.

As to `COCCn1ccc2cc(C(F)(F)F)c(NC(=O)c3c[nH]c4ccc(F)cc4c3=O)cc21` [Compound 566, 6-fluoro-N-[1-(2-methoxyethyl)-5-(trifluoromethyl)indol-6-yl]-4-oxo-1H-quinoline-3-carboxamide], the EC50 is under 10 µM and the “% Activity” value is reported as “++ (between 25% to 100%)”.

Regarding `O=C(Nc1nc2ccccc2[nH]1)c1c[nH]c2ccccc2c1=O` [Compound 216, N-(3H-benzoimidazol-2-yl)-4-oxo-1H-quinoline-3-carboxamide], the EC50 was in the range of 25 to 60 µM and the “% Activity” value is listed as “+ (<25%)”.

In the case of `Cc1cc(C(C)(C)C)c(O)cc1NC(=O)c1c[nH]c2ccccc2c1=O` [Compound 518, N-(5-hydroxy-2-methyl-4-tert-butyl-phenyl)-4-oxo-1H-quinoline-3-carboxamide], the EC50 is under 10 µM and the “% Activity” value is on record as “++ (between 25% to 100%)”.

As for `CCOC(=O)[C@H]1CCCN(c2ccc(NC(=O)c3c[nH]c4ccccc4c3=O)c(C(F)(F)F)c2)C1` [Compound 660, (S)-ethyl 1-(4-(4-oxo-1,4-dihydroquinoline-3-carboxamido)-3-(trifluoromethyl)phenyl)piperidine-3-carboxylate], the EC50 is under 10 µM and the “% Activity” value is listed as “++ (between 25% to 100%)”.

Consider `O=C(Nc1ccc2cc[nH]c2c1)c1cnc2ccc(F)cc2c1O` [Compound 345, 6-fluoro-4-hydroxy-N-(1H-indol-6-yl)quinoline-3-carboxamide], for which the EC50 is under 10 µM and the “% Activity” value was “++ (between 25% to 100%)”.

Turning to `CC(C)Cc1ccc(-c2ccccc2NC(=O)c2c[nH]c3ccccc3c2=O)cc1` [Compound 391, N-[2-(4-isobutylphenyl)phenyl]-4-oxo-1H-quinoline-3-carboxamide], the EC50 was under 10 µM and the “% Activity” value is recorded as “++ (between 25% to 100%)”.

Consider `O=C(Nc1ccccc1-c1ccccc1OC(F)(F)F)c1c[nH]c2ccccc2c1=O` [Compound 156, 4-oxo-N-[2-[2-(trifluoromethoxy)phenyl]phenyl]-1H-quinoline-3-carboxamide], for which the EC50 was under 10 µM and the “% Activity” value is on record as “++ (between 25% to 100%)”.

For the molecule `O=C(Nc1ccccc1-c1ccccc1C(F)(F)F)c1c[nH]c2ccccc2c1=O` [Compound 11, 4-oxo-N-[2-[2-(trifluoromethyl)phenyl]phenyl]-1H-quinoline-3-carboxamide], the EC50 was under 10 µM and the “% Activity” value is listed as “++ (between 25% to 100%)”.

As for `O=C(Nc1ccc(C2CCCCC2)c(O)c1)c1c[nH]c2cccc(O)c2c1=O` [Compound 522, N-(4-cyclohexyl-3-hydroxy-phenyl)-5-hydroxy-4-oxo-1H-quinoline-3-carboxamide], the half-maximal effective concentration (EC50) is under 10 µM and the “% Activity” value is listed as “++ (between 25% to 100%)”.

As for `Cc1ccc(NC(=O)c2c[nH]c3ccccc3c2=O)c(F)c1` [Compound 289, N-(2-fluoro-4-methyl-phenyl)-4-oxo-1H-quinoline-3-carboxamide], the EC50 is under 10 µM and the “% Activity” value was “++ (between 25% to 100%)”.

On to `Cc1cccc2[nH]cc(C(=O)Nc3cc(O)c(C4(C)CCCCC4)cc3F)c(=O)c12` [Compound 498, N-[2-fluoro-5-hydroxy-4-(1-methylcyclohexyl)-phenyl]-5-methyl-4-oxo-1H-quinoline-3-carboxamide], for which the EC50 was under 10 µM and the “% Activity” value is reported as “++ (between 25% to 100%)”.

With `O=C(Nc1ccc(C(F)(F)F)c(O)c1)c1c[nH]c2c(Cl)cccc2c1=O` [Compound 716, 8-chloro-N-[3-hydroxy-4-(trifluoromethyl)phenyl]-4-oxo-1H-quinoline-3-carboxamide], the EC50 was under 10 µM and the “% Activity” value is “++ (between 25% to 100%)”.

On to `Nc1cc(NC(=O)c2c[nH]c3ccccc3c2=O)ccc1Cl` [Compound 453, N-(3-amino-4-chloro-phenyl)-4-oxo-1H-quinoline-3-carboxamide], for which the EC50 is under 10 µM and the “% Activity” value was “++ (between 25% to 100%)”.

With `Cc1ccccc1NC(=O)c1c[nH]c2ccccc2c1=O` [Compound 459, N-(o-tolyl)-4-oxo-1H-quinoline-3-carboxamide], the concentration giving a half-maximal response (EC50) was under 10 µM and the “% Activity” value was “++ (between 25% to 100%)”.

Regarding `CCOCCc1c[nH]c2cc(NC(=O)c3c[nH]c4ccccc4c3=O)ccc12` [Compound 423, N-[3-(2-ethoxyethyl)-1H-indol-6-yl]-4-oxo-1H-quinoline-3-carboxamide], the EC50 was under 10 µM and the “% Activity” value was “++ (between 25% to 100%)”.

Regarding `N#CCc1ccccc1NC(=O)c1c[nH]c2ccccc2c1=O` [Compound 308, N-[2-(cyanomethyl)phenyl]-4-oxo-1H-quinoline-3-carboxamide], the EC50 fell in the range of 10 to 25 µM and the “% Activity” value was “++ (between 25% to 100%)”.

As for `Cc1cccc2[nH]cc(C(=O)Nc3ccc(OC(C)C)cc3C(F)(F)F)c(=O)c12` [Compound 547, N-[4-isopropoxy-2-(trifluoromethyl)phenyl]-5-methyl-4-oxo-1H-quinoline-3-carboxamide], the EC50 is under 10 µM and the “% Activity” value is “+++ (>100%)”.

With `O=C(Nc1ccc2cc[nH]c2c1)c1cnc2c(F)cc(F)cc2c1O` [Compound 377, 6,8-difluoro-4-hydroxy-N-(1H-indol-6-yl)quinoline-3-carboxamide], the EC50 lay within 10 to 25 µM and the “% Activity” value is “++ (between 25% to 100%)”.

Take `CC(C)(C)c1ccc(NC(=O)c2c[nH]c3ccccc3c2=O)cc1N1CCCC1` [Compound 707, 4-oxo-N-(3-pyrrolidin-1-yl-4-tert-butyl-phenyl)-1H-quinoline-3-carboxamide]: the EC50 is under 10 µM and the “% Activity” value is reported as “++ (between 25% to 100%)”.

For the molecule `Cc1cccc2[nH]cc(C(=O)Nc3ccc(OC4CCCC4)cc3C(F)(F)F)c(=O)c12` [Compound 595, N-[4-cyclopentoxy-2-(trifluoromethyl)phenyl]-5-methyl-4-oxo-1H-quinoline-3-carboxamide], the EC50 was under 10 µM and the “% Activity” value is reported as “++ (between 25% to 100%)”.
